# Measurements reported in US20120201902A1, “ANTIMICROBIAL/PRESERVATIVE COMPOSITIONS COMPRISING BOTANICALS” (The Trustees of Columbia University in the City of New York, priority 2009, published 2012).
# Tests used:
# S. aureus [1] = settings: erythromycin, gentamicin, vancomycin, ciproflaxin, clindamycin, tetracycline; cited from earlier work
# S. aureus [2] = test: In vitro rapid (15 seconds) antibacterial activity (Method A), S. aureus; assay type: cell-based
# Procedure: Method A: 0.8 ml of a test solution was mixed with 0.1 ml of bacterial culture (10^8 cfu/ml) and 0.1 ml of bovine serum and vortexed for 15 seconds. 9 ml of drug neutralizing Fluid (DNF) was then added and serially diluted with DNF and plated on trypticase soy agar (TSA) plates. The plates were incubated for 24-48 hours at 37° C., and colony counts were determined. For a control, a gel base was used alone. The gel base (Base 26) contains 0.2% hydroxymethylpropyl cellulose and 0.2% polyquaternium10, and 0.5% 1,3 propanediol in water.
# The present example evaluates rapid (15 seconds) antibacterial activity of various agents, alone and in combination, in an aqueous gel base (Base 26) using S. aureus as the test organism. One method of testing (Method A) uses 0.8 ml of the test solution mixed with 0.1 ml of bacterial culture (10^8 cfu/ml) and 0.1 ml of Bovine serum. The solution is vortexed for 15 seconds. 9.0 ml of drug neutralizing Fluid (DNF) is then added and then serially diluted with DNF and plated on TSA plates. Plates are incubated for 24-48 hours at 37° C. and colony counts were determined. For A control, the base was used alone.
# S. aureus [3] = test: In vitro rapid (15 second) efficacy of surface disinfectants; assay type: cell-based; settings: surfactant base
# Procedure: The following ingredients were added in a surfactant base containing water and alkyl polyglycoside surfactant (Glucopon) (Table 125).
# Table 126 provides the dadta for an in vitro rapid (15 second) antibacterial efficacy of surface disinfectants against S. aureus.
# The following ingredients were added in a surfactant base containing water and alkyl polyglycoside surfactant (Glucopon) (Table 127).
# Table 128 provides the results from an in vitro rapid (15 second) antibacterial efficacy of surface disinfectants against S. aureus.
# S. aureus [4] = test: In vitro rapid (15 seconds) efficacy of hand disinfectant soap (Method A with 10^9 organism); assay type: cell-based
# Description: The method of testing is same method as described above as Method A, however using 10^9 organism instead 10^8.
# C. albicans [5] = test: Preservative efficacy in cream (Method 1), C. albicans; assay type: cell-based, Candida albicans; settings: for Efficacy (log10 reduction from control growth) C. albicans: Table 67
# Aspergillus niger = test: Preservative efficacy in cream (Method 1), Aspergillus niger; assay type: cell-based; settings: for efficacy of solvent added to GSE, lemongrass oil and lactic acid: against A. niger
# C. albicans [6] = test: Efficacy of antifungal creams in pig skin method (Method D), loosely and tightly adhered organism; assay type: cell-based, Candida albicans; settings: conclusion of Example 31 (Methods C, D, E)
# Procedure: Method D: Evaluation of efficacy in pig skin method (test organism C. albicans). […] At the end of incubation, DNF (drug neutralizing fluid) was added to each piece, mixed to remove the cream and loosely adhered bacteria on the skin. Loosely adhered organism: The fluid containing the cream was removed, serially diluted with DNF and aliquots plated on TSA and incubated for 24-48 hours and colonies were counted. Tightly adhered organism: DNF was added to the rinsed pigskin and sonicated for 20 minutes to remove the tightly adhered bacteria. The fluid after sonication was serially diluted, plated on TSA and, incubate for 24-48 hours and colony counts were determined.
# [7] = cited from earlier work
# S. aureus [8] = test: Synergistic antibacterial activity of benzyl alcohol and citrus fruit extract in proteinaceous media (1 minute); assay type: cell-based; settings: 2.0 % w/w, media 50% TSB and 50% bovine serum
# Procedure: Citrus fruit extract was obtained from PL Thomas (BiosecurF440D organic citrus fruit extract concentrate). The following concentrations of compounds were added to S. aureus culture (10^8 cfu/ml of media containing 50% TSB and 50% bovine serum). After 1 minute, drug neutralizing fluid (DNF) was added and mixed. The samples were then serially diluted with DNF and plated in TSA plate. The plates were incubated for 24-48 hours at 37° C. and colony counts were determined.
# [9] = Table 106, 0.2 % w/w in Base 26, 15 seconds
# [10] = Table 106, 0.5 % w/w in Base 26, 15 seconds
# [11] = Table 106, 3.0 % w/w in Base 26, 15 seconds
# [12] = Table 106, 2.0 % w/w in Base 26, 15 seconds
# [13] = Table 107, 2.0 % w/w, 15 seconds
molecule,measurement,setting,value
CC(C)=CCCC(C)=CCCC(C)=CCO [farnesol],susceptibility of S. aureus to antibiotics,S. aureus [1],enhanced the susceptibility
O=C(O)CC(O)(CC(=O)O)C(=O)O [Citric acid],log10 reduction,S. aureus [2]; [9],0.1 log10
(polyiminoimidocarbonyliminoimidocarbonyl-iminohexamethylene)hydro-chloride [Vantocil],synergistic activity with benzyl alcohol and fruit acids,S. aureus [3],synergistic activity
same,synergistic activity with benzyl alcohol and lactic acid,S. aureus [3],synergistic activity
CC(C)=CCC[C@](C)(O)C1CC=C(C)CC1 (some centres unmarked) [bisabolol],susceptibility of S. aureus to antibiotics,S. aureus [1],enhanced the susceptibility
N=C(NCCCCCCNC(=N)NC(=N)Nc1ccc(Cl)cc1)NC(=N)Nc1ccc(Cl)cc1.O=C(O)[C@H](O)[C@@H](O)[C@H](O)[C@H](O)CO.O=C(O)[C@H](O)[C@@H](O)[C@H](O)[C@H](O)CO [Chlorhexidine gluconte],log10 reduction,S. aureus [2]; [9],1.43 log10
"[H]/N=C(\N/C(=N/[H])NCCCCCCNC(=N)NC(=N)Nc1ccc(Cl)cc1)Nc1ccc(Cl)cc1 [chlorhexidine, reference compound]",synergistic activity with benzyl alcohol and fruit acids,"S. aureus [2]; Base 26, 15 seconds",synergistic activity
CC(C)=CCC/C(C)=C/CC1CCCC1=O (centres unmarked) [apritone],susceptibility of S. aureus to antibiotics,S. aureus [1],enhanced the susceptibility
Oc1cc(Cl)ccc1Oc1ccc(Cl)cc1Cl [triclosan],"synergistic action with BPC (benzyl alcohol, propanediol, citric acid)",S. aureus [4],synergistic action
N=C(NCCCCCCNC(=N)NC(=N)Nc1ccc(Cl)cc1)NC(=N)Nc1ccc(Cl)cc1.O=C(O)[C@H](O)[C@@H](O)[C@H](O)[C@H](O)CO.O=C(O)[C@H](O)[C@@H](O)[C@H](O)[C@H](O)CO [Chlorhexidine gluconate],log10 reduction,S. aureus [2]; [10],2.4 log10
"CCCCC(CC)COCC(O)CO (centres unmarked) [Sensiva, Octoxyglycerin]","efficacy of solvent added to GSE, lemongrass oil and lactic acid",C. albicans [5]; against C. albicans,effective against C. albicans
same,"efficacy of solvent added to GSE, lemongrass oil and lactic acid",Aspergillus niger,not against A. niger
C=CC(C)(O)CCC=C(C)CCC=C(C)C (centres unmarked) [nerolidol],susceptibility of S. aureus to antibiotics,S. aureus [1],enhanced the susceptibility
"OCCCO [1,3 propanediol]",log10 reduction,S. aureus [2]; [11],0.2 log10
same,"synergistic efficacy of benzyl alcohol and GSE, with and without 1,3 propanediol","Aspergillus niger; 1-2% preservative in hydrophilic cream base, pH 4.5-5.0, tested against Aspergillus niger and C. albicans",enhances the activity
CC(O)C(=O)O (centres unmarked) [lactic acid],synergistic activity of organic acids with benzyl alcohol,S. aureus [2],synergistic activity
same,log10 reduction,S. aureus [2]; [9],0.1 log10
same,log10 reduction,S. aureus [2]; [12],0.11 log10
same,log10 reduction,S. aureus [2]; [13],0.11 log10
benzalkonium chloride [reference compound],synergistic activity with benzyl alcohol and fruit acids,"S. aureus [2]; Base 26, 15 seconds",synergistic activity
same,log10 reduction,"S. aureus [2]; Table 106, 0.1 % w/w in Base 26, 15 seconds",2.7 log10
same,"synergistic action with BPC (benzyl alcohol, propanediol, citric acid)",S. aureus [4],synergistic action
Clc1ccc(COC(Cn2ccnc2)c2ccc(Cl)cc2Cl)c(Cl)c1 (centres unmarked) [miconazole],"antifungal activity with synergistic combination of benzyl alcohol, fruit acid, biguanide and benzalkonium chloride",C. albicans [6],significantly enhanced
O=C(O)c1ccccc1 [benzoic acid],synergistic activity of organic acids with benzyl alcohol,S. aureus [2],synergistic activity
same,log10 reduction,S. aureus [2]; [13],0.1 log10
O=C1O[C@H]([C@@H](O)CO)C(O)=C1O [ascorbic acid],synergistic activity of organic acids with benzyl alcohol,S. aureus [2],not effective
same,log10 reduction,S. aureus [2]; [13],0.1 log10
zinc picolinate,water solubility (in words),[7],moderately water soluble
OCc1ccccc1 [Preservative 2],Efficacy (log10 reduction from control growth) A. niger,"Aspergillus niger; Table 59, preservative in hydrophilic cream base, pH 4.5-5.0, benzyl alcohol (natural), GSE, Zemea, control growth 1 × 10^4-5 × 10^4",0.98 log10
"OCc1ccccc1 [Benzyl alcohol, benzyl alcohol]",Efficacy (log10 reduction from control growth) C. albicans,C. albicans [5]; 0.5 % w/w in cream,1.0 log10
same,Efficacy (log10 reduction from control growth) C. albicans,C. albicans [5]; 1.0 % w/w in cream,2.7 log10
same,"efficacy of solvent added to GSE, lemongrass oil and lactic acid",C. albicans [5]; against C. albicans,higher efficacy
same,synergistic activity with Zemea,"C. albicans [5]; higher concentrations of benzyl alcohol, against C. albicans",synergistic activity
same,Antibacterial activity against S. Aureus (10^8 CFU/ml) log10 reduction,S. aureus [8],0.1 log10
same,log10 reduction,S. aureus [2]; [10],0.13 log10
same,log10 reduction,"S. aureus [2]; Table 106, 1.0 % w/w in Base 26, 15 seconds",0.14 log10
same,log10 reduction,S. aureus [2]; [12],0.18 log10
same,log10 reduction,S. aureus [2]; [11],0.2 log10
same,log10 reduction,S. aureus [2]; [13],0.12 log10
same,synergistic activity with citric and lactic acid,"S. aureus [2]; benzyl alcohol at 1% and more than 1%, Base 26, 15 seconds",synergistic activity
same,activity along with fruit acid without any botanical extracts,"S. aureus [2]; benzyl alcohol at higher concentrations, 15 seconds",effective
same,"synergistic activity with the combination of GSE, lemongrass oil, and lactic acid","Aspergillus niger; Example 5, organism not given",synergistic activity
same,Efficacy (log10 reduction from control growth) A. niger,"Aspergillus niger; Table 67, 0.5 % w/w in cream",1.0 log10
same,Efficacy (log10 reduction from control growth) A. niger,"Aspergillus niger; Table 67, 1.0 % w/w in cream",1.9 log10
same,"efficacy of solvent added to GSE, lemongrass oil and lactic acid",Aspergillus niger,higher efficacy
OCCCO [Zemea ®],Efficacy (log10 reduction from control growth) C. albicans,C. albicans [5]; 0.5 % w/w in cream,0.5 log10
same,Efficacy (log10 reduction from control growth) A. niger,"Aspergillus niger; Table 67, 0.5 % w/w in cream",0.85 log10
